Assay results taken from patent publication US11179430B2, “Extracts from mother-of-thyme and the use i'hereof” (Finzelberg GmbH & Co. KG, priority 2012, dated 2021).

Test system: TNBS-induced colitis in Wistar rats
Experiment: In vivo TNBS test model (colitis in rats)
Procedure: Female Wistar rats (200-210 g) were kept in Makrolon cages in air-conditioned animal quarters with 12 hours light-dark cycle, fed standard rodent food and water ad libitum throughout the experiment. The rats are randomly assigned to six groups (n=10). Two groups (healthy and sick controls) obtain 1 ml of the administration medium orally, and the test groups obtain either 100 mg/kg BW of a wild thyme extract formulation according to Example 4, or 70 mg/kg BW of a wild thyme extract formulation according to Example 3, or 30 mg/kg BW of the prebiotic Nutriose, or 100 mg/kg BW sulfasalazine (SAZ) in the reference group. All test substances are administered once a day as a solution or suspension through a gastric tube for a period of 7 days. The administration of the test substances starts at the same day as the colitis induction. For this purpose, the rats are fasted over night, and then a colitis is induced in both the sick control group and the treatment groups with TNBS as follows: During a halothane anesthesia, a solution (10 mg of TNBS dissolved in 0.25 ml of ethanol 50% v/v) is injected from a Teflon cannula through the anus 8 cm deep into the intestine. The rats of the healthy control group are administered 0.25 ml of a PBS solution instead of the TNBS solution. The body weight, the water and food intake and the stool consistency are recorded daily during the testing period. One week after the start of the colitis induction, all the rats are sacrificed by an overdose of halothane, and the intestine is removed for evaluating the intestinal damage. The intestinal segment is cleaned from fat and mesenterium, and transferred to a filter paper. Each specimen is weighed, and its length is measured under a constant load (2 g), and the weight-to-length ratio is determined therefrom. Independently of the treatment employed, the intestine is evaluated macroscopically for visible damage on a scale of from 0 to 10 by two observers by means of previously defined criteria, which take the extension and severity of the damage into account. […]

O=C(O)c1cc(/N=N/c2ccc(S(=O)(=O)Nc3ccccn3)cc2)ccc1O [Sulfasalazine, sulfasalazine]
IL-6 (100 mg/kg oral once a day, 7 days, colitic control 281.8 ± 26.8): 222.0 ± 16.1 ng/g | MPO (100 mg/kg oral once a day, 7 days, colitic control 8969.6 ± 1402.0): 5591.5 ± 537.0 mU/g | significant influence on the parameters of Table 3, in words (doses as in Table 3, vs. colitic control): could not show significant improvements in all parameters
